The record followed here is US20200016159A1, “N3-CYCLICALLY SUBSTITUTED THIENOURACILS AND USE THEREOF” (Bayer Aktiengesellschaft, priority 2016, published 2020).

The target in this assay is T1, human adenosine A2b receptor (Homo sapiens, UniProt P29275).
T1 sequence (P29275 1-332): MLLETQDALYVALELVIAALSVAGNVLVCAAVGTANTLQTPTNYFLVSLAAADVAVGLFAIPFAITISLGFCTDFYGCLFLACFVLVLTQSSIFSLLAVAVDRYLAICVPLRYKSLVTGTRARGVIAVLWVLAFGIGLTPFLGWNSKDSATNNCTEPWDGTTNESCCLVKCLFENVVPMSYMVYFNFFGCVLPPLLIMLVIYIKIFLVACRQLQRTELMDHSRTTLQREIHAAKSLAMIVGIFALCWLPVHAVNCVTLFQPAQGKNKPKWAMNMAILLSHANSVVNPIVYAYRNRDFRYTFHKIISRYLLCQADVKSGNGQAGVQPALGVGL
Briefly: Cellular in vitro reporter gene test for A2b receptor activity (antagonism of NECA). Set-up: expressed in transfected cells; host or cells: CHO-K1 (Chinese hamster ovary) with CRE-luciferase reporter. In kind it is cell-based. The note with it: recombinant CHO-K1 cells, CRE-luciferase reporter, co-incubation with EC50 concentration of NECA, 3 hours. On the procedure: The identification of selective antagonists of the human adenosine A2b receptor and the quantification of the efficacy and selectivity of the compounds according to the invention was carried out with the aid of recombinant cell lines for the human adenosine receptors A1, A2a, A2b and A3. These cell lines were originally derived from an ovarepithelial cell of the hamster (Chinese Hamster Ovary, CHO-K1, American Type Culture Collection, Manassas, Va. 20108, USA). In addition to the respective recombinantly expressed adenosine receptor for testing the efficacy at the A1, A2a and A2b receptors, the cell lines contain a reporter gene construct where expression of the firefly (Photinus pyralis) luciferase is under the control of a promoter which can be activated via intracellular signal cascades by stimulation of the receptors with the (not subtype-selective) adenosine receptor agonist NECA (5′-N-ethylcarboxamidoadenosine) [S. J. Hill, J. G. Baker, S. Rhees, Curr. Opin. Pharmacol. 1, 526-532 (2001)].
In the case of the A2a and A2b cell lines, this is a minimal promoter having a plurality of cAMP-responsive elements (CRE). Stimulation of the Gs-coupled A2b or A2a receptors by NECA ultimately leads, via formation of cAMP, to CRE-dependent induction of luciferase expression, which is detected 3 hours after the start of the incubation with NECA using a detection solution in a suitable luminometer. For testing the antagonists, initially, in a pre-experiment, the concentration of NECA which, at the test day in question, results in half-maximum stimulation of luciferase expression (EC50 concentration) is determined. By joint incubation of this EC50 concentration of NECA with the substances to be tested, it is possible to determine their antagonistic activity.
Table 1 below lists the IC50 values from the A2b receptor assay for individual working examples (in some cases as means of a plurality of independent individual determinations and rounded to two significant figures; it may also be the case here that various independent preparations of the respective working example have been used): […]
For orientation: In a reporter assay the amount or activity of a reporter protein is the signal.

As a reminder, the IC50 is the midpoint of a concentration-inhibition curve. On to `Cc1c(CN2CCNC2=O)sc2c1c(=O)n(C1CC1)c(=O)n2CC1CC1(F)F` (racemic) [Example 19, 3-Cyclopropyl-1-[(2,2-difluorocyclopropyl)methyl]-5-methyl-6-[(2-oxoimidazolidin-1-yl)methyl]thieno[2,3-d]pyrimidine-2,4(1H,3H)-dione (racemate)], for which the half-maximal inhibitory concentration (IC50) was found to be 19 nM.
The same measure for `Cc1c(Cn2nc[nH]c2=O)sc2c1c(=O)n(C1CC1)c(=O)n2CC1CC1(F)F` (racemic) [Example 20, 3-Cyclopropyl-1-[(2,2-difluorocyclopropyl)methyl]-5-methyl-6-[(5-oxo-4,5-dihydro-1H-1,2,4-triazol-1-yl)methyl]thieno[2,3-d]pyrimidine-2,4(1H,3H)-dione (racemate)]: 130 nM; for `Cc1c(CN2CCNC2=O)sc2c1c(=O)n(C1CC1)c(=O)n2CC1CCCO1` (racemic) [Example 37, 3-Cyclopropyl-5-methyl-6-[(2-oxoimidazolidin-1-yl)methyl]-1-(tetrahydrofuran-2-ylmethyl)thieno[2,3-d]pyrimidine-2,4(1H,3H)-dione]: 35 nM.
Then `Cc1c(CN2CCNC2=S)sc2c1c(=O)n(C1CC1)c(=O)n2CC1CCCO1` (racemic) [Example 40, 3-Cyclopropyl-5-methyl-1-(tetrahydrofuran-2-ylmethyl)-6-[(2-thioxoimidazolidin-1-yl)methyl]thieno[2,3-d]pyrimidine-2,4(1H,3H)-dione], with 15 nM.
In the case of `Cc1c(CN2CCNC2=NC#N)sc2c1c(=O)n(C1CC1)c(=O)n2CC1CCCO1` (racemic) [Example 41, [1-{[3-Cyclopropyl-5-methyl-2,4-dioxo-1-(tetrahydrofuran-2-ylmethyl)-1,2,3,4-tetrahydrothieno[2,3-d]pyrimidin-6-yl]methyl}imidazolidin-2-ylidene]cyanamide], the IC50 was 16 nM.
Then `COC(=O)N=C1NCCN1Cc1sc2c(c1C)c(=O)n(C1CC1)c(=O)n2CC1CCCO1` (racemic) [Example 42, Methyl [1-{[3-cyclopropyl-5-methyl-2,4-dioxo-1-(tetrahydrofuran-2-ylmethyl)-1,2,3,4-tetrahydrothieno[2,3-d]pyrimidin-6-yl]methyl}imidazolidin-2-ylidene]carbamate], with 10 nM; and `Cc1c(CN2CCNC(=O)C2=O)sc2c1c(=O)n(C1CC1)c(=O)n2CC1CCCO1` (racemic) [Example 45, 3-Cyclopropyl-6-[(2,3-dioxopiperazin-1-yl)methyl]-5-methyl-1-(tetrahydrofuran-2-ylmethyl)thieno[2,3-d]pyrimidine-2,4(1H,3H)-dione], with 110 nM.
On to `Cc1c(Cn2cc[nH]c2=O)sc2c1c(=O)n(C1CC1)c(=O)n2CC1CCCO1` (racemic) [Example 46, 3-Cyclopropyl-5-methyl-6-[(2-oxo-2,3-dihydro-H-imidazol-1-yl)methyl]-1-(tetrahydrofuran-2-ylmethyl)thieno[2,3-d]pyrimidine-2,4(1H,3H)-dione], for which the half-maximal inhibitory concentration (IC50) was 39 nM.
With `Cc1c(Cn2nc[nH]c2=O)sc2c1c(=O)n(C1CC1)c(=O)n2CC1CCCO1` (racemic) [Example 49, 3-Cyclopropyl-5-methyl-6-[(5-oxo-4,5-dihydro-1H-1,2,4-triazol-1-yl)methyl]-1-(tetrahydrofuran-2-ylmethyl)thieno[2,3-d]pyrimidine-2,4(1H,3H)-dione], the IC50 came out at 110 nM.
Then `Cc1c(CN2CCNC2=O)sc2c1c(=O)n(C1(C)CC1)c(=O)n2CC1CC1(F)F` (racemic) [Example 63, 1-[(2,2-Difluorocyclopropyl)methyl]-5-methyl-3-(1-methylcyclopropyl)-6-[(2-oxoimidazolidin-1-yl)methyl]thieno[2,3-d]pyrimidine-2,4(1H,3H)-dione], with 12 nM.
In the case of `Cc1c(Cn2nc[nH]c2=O)sc2c1c(=O)n(C1(C)CC1)c(=O)n2CC1CC1(F)F` (racemic) [Example 66, 1-[(2,2-Difluorocyclopropyl)methyl]-5-methyl-3-(1-methylcyclopropyl)-6-[(5-oxo-4,5-dihydro-1H-1,2,4-triazol-1-yl)methyl]thieno[2,3-d]pyrimidine-2,4(1H,3H)-dione], the IC50 stood at 140 nM.
